The subject of one assay is THP-1 cells. Kind of assay: THP-1 proliferation assay - 1 (AML). In kind it is cell-based. Particulars: Homo sapiens, 72h incubation, CellTiter-Glo cell viability, read-out: Target IC50. Here is the method:
In vitro Assay 2: THP-1 proliferation assay - 1 (AML) 2000 cells/well of THP-1 cells were seeded in RPMI 1640 with Glutamax (Gibco, #11875-093) and 10% fetal calf serum (Biochrom, #S0615) in 384-well plates. The next day, cells were incubated with different concentrations of test compounds for 72h. Cellular viability was analyzed using CellTiter-Glo® Luminescent Cell Viability Assay (Promega, #G7570) according to manufacturer's instructions.
In general terms: Cellular ATP, detected with luciferase, serves as a proxy for viable cell number.

The target of another assay is T1, human DHODH (Homo sapiens, UniProt Q02127).
T1 construct: purchased Novus NBP1-98916
Kind of assay: DHODH enzymatic assay - 1 (DCIP bleaching). It counts as biochemical. Particulars: 2 nM DHODH, 1 mM dihydroorotate, 0.1 mM decylubiquinone, 0.06 mM DCIP, pH 8.0, 32 degree celsius; read-out: Target IC50. Here is the method: The assay was conducted in buffer containing 50 mM Tris, 0.1% Triton X-100, 150 mM potassium chloride, 2 nM DHODH, 1 mM dihydroorotate, 0.1 mM decylubiquinone, 0.06 mM DCIP, and 2% DMSO at pH 8.0 at 32 degree celsius. The reaction was initiated by addition of substrates. Enzyme activity was monitored kinetically by the reduction in DCIP absorbance at 600 nm. Purified recombinant human DHODH enzyme was purchased from Novus (cat. no. NBP1-98916). Other chemicals were purchased from Sigma-Aldrich. Absorbance measurements were obtained using a BMG clarion star plate-reading spectrophotometer. Table 1: DHODH enzymatic assay : IC50 values of examples in in vitro assay 1

We go through one compound from patent EP3553052A1, “5-OXO-4,5-DIHYDRO-1H-1,2,4-TRIAZOL DERIVATIVES FOR THE TREATMENT OF CANCER” (Bayer AG, priority 2018, dated 2019).

One may read the IC50 as the concentration that inhibits the measured activity by half.

T1 sequence (Q02127 whole entry): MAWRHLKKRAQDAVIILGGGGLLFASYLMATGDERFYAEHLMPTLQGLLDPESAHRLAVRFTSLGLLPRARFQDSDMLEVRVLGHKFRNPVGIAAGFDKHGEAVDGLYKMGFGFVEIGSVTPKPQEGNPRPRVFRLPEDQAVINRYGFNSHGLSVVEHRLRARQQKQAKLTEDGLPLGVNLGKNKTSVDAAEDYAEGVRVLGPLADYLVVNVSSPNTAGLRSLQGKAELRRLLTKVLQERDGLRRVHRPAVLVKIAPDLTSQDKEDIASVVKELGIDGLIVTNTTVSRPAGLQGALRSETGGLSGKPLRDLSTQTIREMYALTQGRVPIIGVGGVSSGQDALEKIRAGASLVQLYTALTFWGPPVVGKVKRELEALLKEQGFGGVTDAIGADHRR

Turning to `CCCCOc1cc(-n2nc(-c3ccccc3Cl)[nH]c2=O)c(F)cc1C(=O)Nc1c(F)cccc1Cl` [Compound I, 2-butoxy-N-(2-chloro-6-fluorophenyl)-4-[3-(2-chlorophenyl)-5-oxo-4,5-dihydro-1H-1,2,4-triazol-1-yl]-5-fluorobenzamide], the concentration for half-maximal inhibition (IC50) came to 0.305 µM in the assay with THP-1 cells and 3 µM at human DHODH.
